Measured values taken from patent publication US9732070B2, “Protein kinase C inhibitors and uses thereof” (Rigel Pharmaceuticals, Inc., priority 2009, dated 2017).

Test system: Human primary T cells
Experiment: IL-2 ELISA, human primary T cell, anti-CD3+CD28 stimulation
Assay type: cell-based
Conditions: IL-2 quantified by ELISA, human primary T cells stimulated with αCD3 and αCD28, 24 hours
Method: Human primary T cell isolation and culture: Human primary T cells were prepared as follows. Whole blood was obtained from a healthy volunteer, mixed 1:1 with PBS, layered on to Ficoll Hypaque (Amersham Pharmacia Biotech, Piscataway, N.J., Catalog #17-1440-03) in 2:1 blood/PBS:ficoll ratio and centrifuged for 30 minutes at 4° C. at 1750 rpm. The cells at the serum: ficoll interface were recovered and washed twice with 5 volumes of PBS. These freshly isolated human peripheral blood mononuclear cells were cultured in Yssel's medium containing 40 U/mL IL2 in a flask pre-coated with 1 μg/mL αCD3 and 5 μg/mL αCD28 (Anti-Human CD3, BD Pharmingen Catalog #555336, Anti-Human CD28, Beckman Coulter Catalog #IM1376). The cells were stimulated for 3-4 days, then transferred to a fresh flask and maintained in RPMI (RPMI-1640 with L-Glutamine; Mediatech, Inc., Herndon Va., cat. #10-040-CM) with 10% FBS and 40 U/mL IL-2. The primary T-cells were then washed twice with PBS to remove the IL-2.
Primary T cell stimulation and IL2 ELISA: Human primary T cells (100,000 cells per well) were pre-incubated with or without test compound in Yssel's medium for 1 hour at 37° C. Cells were then stimulated by transferring them to round-bottom 96-well plates pre-coated with 1 μg/ml αCD3 and 5 μg/ml αCD28. For counter assay, cells were instead stimulated by adding 8× stock solutions of PMA and ionomycin in Yssels (for final concentrations of 0.5 ng/ml PMA and 0.1 uM ionomycin, both from Calbiochem). Cells were incubated at 37° C. for 24 hours before 100 μL supernatants were harvested for quantification of IL-2 by ELISA using Human IL-2 Duoset ELISA Kit from R and D Systems, Cat. # DY202E.

Structure (SMILES) | IC50 (T-cell) [nM] | IC50 [nM]
Cn1nnn(-c2cc(Nc3ncc(C#N)c(NC4CC(C)(C)NC(C)(C)C4)n3)c(F)cc2C2CC2)c1=O [I-15, 5-cyano-N2-{4-cyclopropyl-6-fluoro[3-(4-methyl)-1,2,3,4-tetrazol-5-one-1-yl]}phenyl-N4-(2,2,6,6-tetramethylpiperidin-4-yl)-2,4-pyrimidineamine] | < 500 | –
CN1C(C)(C)CC(Nc2nc(Nc3cc(-n4nnn(C)c4=O)c(C4CC4)cc3F)ncc2F)CC1(C)C [I-16, N2-{4-cyclopropyl-6-fluoro-[3-(4-methyl)-1,2,3,4-tetrazol-5-one-1-yl]}phenyl-5-fluoro-N4-(1,2,2,6,6-pentamethylpiperidin-4-yl)-2,4-pyrimidineamine] | < 500 | –
CN1C(C)(C)CC(Nc2nc(Nc3cc(-n4nnn(C)c4=O)c(C4CC4)cc3F)ncc2C#N)CC1(C)C [I-17, 5-cyano-N2-{4-cyclopropyl-6-fluoro-[3-(4-methyl)-1,2,3,4-tetrazol-5-one-1-yl]}phenyl-N4-(1,2,2,6,6-pentamethylpiperidin-4-yl)-2,4-pyrimidinediamine] | < 500 | –
CN1C(C)(C)CC(Nc2nc(Nc3ccc(OC(C)(C)C(F)(F)F)c(-n4nnn(C)c4=O)c3)ncc2F)CC1(C)C [I-18, 1-(2-(1,1,1-trifluoro-2-methylpropan-2-yloxy)-5-(4-(1,2,2,6,6-pentamethylpiperidin-4-ylamino)-5-fluoropyrimidin-2-ylamino)phenyl)-4-methyl-1H-tetrazol-5(4H)-one] | < 500 | –
Cn1nnn(-c2cc(Nc3ncc(F)c(NC4CC(C)(C)NC(C)(C)C4)n3)ccc2OC(C)(C)C(F)(F)F)c1=O [I-19, 1-(2-(1,1,1-trifluoro-2-methylpropan-2-yloxy)-5-(4-(2,2,6,6-tetramethylpiperidin-4-ylamino)-5-fluoropyrimidin-2-ylamino)phenyl)-4-methyl-1H-tetrazol-5(4H)-one] | < 500 | –
CN1C(C)(C)CC(Nc2nc(Nc3ccc(OC4COC4)c(-n4nnn(C)c4=O)c3)ncc2F)CC1(C)C [I-20, 1-(5-(4-(1,2,2,6,6-pentamethylpiperidin-4-ylamino)-5fluoropyrimidine-2-ylamino)-2-(oxetan-3-yloxy)phenyl)-4-methyl-1H-tetrazol-5(4H)-one] | < 500 | –
Cn1nnn(-c2cc(Nc3ncc(F)c(NC4CC(C)(C)NC(C)(C)C4)n3)ccc2OC2COC2)c1=O [I-21, 1-(5-(4-(2,2,6,6-gtetramethylpiperidin-4-ylamino)-5-fluoropyrimidin-2-ylamino)-2-(oxetan-3-yloxy)phenyl)-4-methyl-1H-tetrazol-5(4H)-one] | < 500 | –
CN1C(C)(C)CC(Nc2nc(Nc3cc(F)cc(-n4nnn(C)c4=O)c3)ncc2F)CC1(C)C [I-22, 1-(3-(4-(1,2,2,6,6-pentamethylpiperidin-4-ylamion)-5fluoropyrimidin-2-ylamino)-5-fluorophenyl)-4-methyl-1H-tetrazol-5(4H)-one] | – | < 500
Cn1nnn(-c2cc(F)cc(Nc3ncc(F)c(NC4CC(C)(C)NC(C)(C)C4)n3)c2)c1=O [I-23, 1-(3-(4-(2,2,6,6-tetramethylpiperidin-4-ylamino)-5-fluoropyrimidin-2-ylamino)-5-fluorophenyl)-4-methyl-1H-tetrazol-5(4H)-one] | < 500 | –
CN1C(C)(C)CC(Nc2nc(Nc3cc(OC4COC4)cc(-n4nnn(C)c4=O)c3)ncc2F)CC1(C)C [I-24, 1-(3-(4-(1,2,2,6,6-pentamethylpiperidin-4-ylamino)-5-fluoropyrimidin-2-ylamino)-5-(oxetan-3-yloxy)phenyl)-4-methyl-1H-tetrazol-5(4H)-one] | < 500 | –
Cn1nnn(-c2cc(Nc3ncc(F)c(NC4CC(C)(C)NC(C)(C)C4)n3)cc(OC3COC3)c2)c1=O [I-25, 1-(3-(4-(2,2,6,6-tetramethylpiperidin-4-ylamino)-5-fluoropyrimidin-2-ylamino)-5-(oxetan-3-yloxy)phenyl)-4-methyl-1H-tetrazol-5(4H)-one] | < 500 | –
CN1C(C)(C)CC(Nc2nc(Nc3ccc(OC4CCOCC4)c(-n4nnn(C)c4=O)c3)ncc2F)CC1(C)C [I-26] | < 500 | –
Cn1nnn(-c2cc(Nc3ncc(F)c(NC4CC(C)(C)NC(C)(C)C4)n3)ccc2OC2CCOCC2)c1=O [I-27, N2-{4-(tetrahydropyran-4-yloxy)-[3-(4-methyl)-1,2,3,4-tetrazol-5-one-1-yl]}phenyl-5-fluoro-N4-(2,2,6,6-tetramethylpyridin-4-yl)-2,4-pyrimidinediamine] | < 500 | –
Cn1nnn(-c2cc(Nc3ncc(F)c(NC4CC(C)(C)NC(C)(C)C4)n3)ccc2OCC2(C)COC2)c1=O [I-28, 5-fluoro-N2-{4-(3-methyloxetan-3-yl)methody-3-[(4-methyl)-1,2,3,4-tetrazol-5-one-1-yl]}phenyl-N4-(2,2,6,6-tetramethylpiperidin-4-yl)-2,4pyrimidinediamine] | < 500 | –
CN1C(C)(C)CC(Nc2nc(Nc3ccc(Cl)c(-n4nnn(C)c4=O)c3)ncc2F)CC1(C)C [I-29, N2-{4-chloro-[3-(4-methyl)-1,2,3,4-tetrazol-5-one-1-yl]}phenyl-5-fluoro-N4-(1,2,2,6,6-pentamethylpiperidin-4-yl)-2,4-pyrimidinediamine] | < 500 | –
Cn1nnn(-c2cc(Nc3ncc(F)c(NC4CC(C)(C)NC(C)(C)C4)n3)ccc2Cl)c1=O [I-30, N2-{4-chloro-[3-(4-methyl)-1,2,3,4-tetrazol-5-one-1-yl]}phenyl-5-fluoro-N4-(2,2,6,6-tetramethylpiperidin-4-yl)-2,4-pyrimidinediamine] | < 500 | –
COc1cc(Nc2ncc(F)c(NC3CC(C)(C)N(C)C(C)(C)C3)n2)cc(-n2nnn(C)c2=O)c1 [I-31, N2-{5-methody-[3-(4-methyl)-1,2,3,4-tetrazol-5-one-1-yl]}phenyl-5-fluoro-N4-(1,2,2,6,6-pentamethylpiperidin-4-yl)-2,4-pyrimidinediamine] | < 500 | –
COc1cc(Nc2ncc(F)c(NC3CC(C)(C)NC(C)(C)C3)n2)cc(-n2nnn(C)c2=O)c1 [I-32, N2-{5-methody-[3-(4-methyl)-1,2,3,4-tetrazol-5-one-1-yl]}phenyl-5-fluoro-N4-(2,2,6,6-tetramethylpiperidin-4-yl)-2,5-pyrimidinediamine] | < 500 | –
Cn1nnn(-c2cc(Nc3ncc(F)c(NC4CC(C)(C)NC(C)(C)C4)n3)ccc2C2CC2)c1=O [I-33, N2-{4-cyclopropyl-[3-(4-methyl)-1,2,3,4-tetrazol-5-one-1-yl]}phenyl-5-fluoro-N4-(2,2,6,6-tetramethylpiperidin-4-yl)-2,4-pyrimidinediamine] | < 500 | –
CN1C(C)(C)CC(Nc2nc(Nc3ccc(C4CC4)c(-n4nnn(C)c4=O)c3)ncc2F)CC1(C)C [I-34, N2-{4-cyclopropyl-[3-(4-methyl)-1,2,3,4-tetrazol-5-one-1-yl]}phenyl-5-fluoro-N4-(1,2,2,6,6-pentamethylpiperidin-4-yl)-2,4-pyrimidinediamine] | < 500 | –
Cn1nnn(-c2cc(Nc3ncc(F)c(NC4CC(C)(C)NC(C)(C)C4)n3)cc(C3CC3)c2)c1=O [I-35, N2-{5-cyclopropyl-[3-(4-methyl)-1,2,3,4-tetrazol-5-one-1-yl]}phenyl-5-fluoro-N4-(2,2,6,6-tetramethylpiperidin-4-yl)-2,4-pyrimidinediamine] | < 500 | –
CN1C(C)(C)CC(Nc2nc(Nc3cc(C4CC4)cc(-n4nnn(C)c4=O)c3)ncc2F)CC1(C)C [I-36, N2-{5-cyclopropyl-[3-(4-methyl)-1,2,3,4-tetrazol-5-one-1-yl]}phenyl-5-fluoro-N4-(1,2,2,6,6-pentamethylpiperidin-4-yl)-2,4-pyrimidinediamine] | < 500 | –
Cn1nnn(-c2cc(Cl)cc(Nc3ncc(F)c(NC4CC(C)(C)NC(C)(C)C4)n3)c2)c1=O [I-37, N2-{5-chloro-[3-(4-methyl)-1,2,3,4-tetrazol-5-one-1-yl]}phenyl-5-fluoro-N4-(2,2,6,6-tetramethylpiperidin-4-yl)-2,4-pyrimidinediamine] | 510 to 2990 | –
Cn1nnn(-c2cc(Nc3ncc(F)c(NC4CC(C)(C)NC(C)(C)C4)n3)cc(C(F)(F)F)c2Cl)c1=O [I-38, N2-{4-chloro-5-trifluoromethyl-[3-(4-methyl)-1,2,3,4-tetrazol-5-one-1-yl]}phenyl-5-fluoro-N4-(2,2,6,6-tetramethylpiperidin-4-yl)-2,4-pyrimidinediamine] | < 500 | –
Cn1nnn(-c2cc(Nc3ncc(F)c(NC4CC(C)(C)NC(C)(C)C4)n3)cc(C(F)(F)F)c2C2CC2)c1=O [I-39, N2-{4-cyclopropyl-5-trifluoromethyl-[3-(4-methyl)-1,2,3,4-tetrazol-5-one-1-yl]}phenyl-5-fluoro-N4-(2,2,6,6-tetramethylpiperidin-4-yl)2,5-pyrimidinediamine] | < 500 | –
CN1C(C)(C)CC(Nc2nc(Nc3cc(-n4nnn(C)c4=O)c(C4CC4)c(C(F)(F)F)c3)ncc2F)CC1(C)C [I-40, N2-{4-cyclopropyl-5-trifluoromethyl-[3-(4-methyl)-1,2,3,4-tetrazol-5-one-1-yl]}phenyl-5-fluoro-N4-(1,2,2,6,6-pentamethylpiperidin-4-yl)-2,4-pyrimidinediamine] | < 500 | –
